What was measured:
[1] = pH stability of quenched linker-payloads in buffers (LCMS); format: physicochemical; details: RT
Experimental: To a solution of compound (payloads or quenched-linker-payloads) in DMSO (0.2-1.0 mg/mL) was added corresponding PBS buffer (V(buffer)/V(DMSO)=5) to give test samples (pH 3, 4, 5, 6, 7.4, and 8.5, or other special pH). The test samples were incubated at RT for at least 3 days and monitored by LCMS (i.e., at 1 hr, 2 hr, 4 hr, 8 hr, and 1 day, 2 day, 3 day, 4 day, 5 day, 6 day, 7 day, 8 day, 9 day, and 21 day time points). Initial concentrations of the samples were 0.2 mg/mL (DMSO/buffer, v/v=1/5). […] The payloads and quenched linker-payloads were mostly stable at pH >5.0, 6.0, 7.4 and 8.5 after 3 days. In more acidic conditions, such as pH 1.0, the payloads or linker-payloads were easily cleaved to release D*-OH.

[2] = Solubility of quenched linker-payloads; details: Table 3c, linker-payloads quenched with taurine-PEG4-azide or CD-N3
[3] = Solubility of linker-payloads and quenched linker-payloads; format: physicochemical; details: quenched linker-payloads, Table 6a
Source text: The quenched linker-payloads were water soluble and used for the pH stability test.

Compound | percentage of the remaining compound ([1]; DMSO, 1 Day) [%] | percentage of the remaining compound ([1]; DMSO, 2 Day) [%] | percentage of the remaining compound ([1]; DMSO, 3 Day) [%] | percentage of the remaining compound ([1]; DMSO, 4 Day) [%] | percentage of the remaining compound ([1]; DMSO, 7 Day) [%] | percentage of the remaining compound ([1]; DMSO, 4 hr) [%] | percentage of the remaining compound ([1]; pH 3.0, 1 Day) [%] | percentage of the remaining compound ([1]; pH 3.0, 4 hr) [%] | percentage of the remaining compound ([1]; pH 4.0, 1 Day) [%] | percentage of the remaining compound ([1]; pH 4.0, 2 Day) [%] | percentage of the remaining compound ([1]; pH 4.0, 3 Day) [%] | percentage of the remaining compound ([1]; pH 4.0, 4 Day) [%] | percentage of the remaining compound ([1]; pH 4.0, 4 hr) [%] | percentage of the remaining compound ([1]; pH 5.0, 1 Day) [%] | percentage of the remaining compound ([1]; pH 5.0, 2 Day) [%] | percentage of the remaining compound ([1]; pH 5.0, 3 Day) [%] | percentage of the remaining compound ([1]; pH 5.0, 4 Day) [%] | percentage of the remaining compound ([1]; pH 5.0, 7 Day) [%] | percentage of the remaining compound ([1]; pH 5.0, 4 hr) [%] | percentage of the remaining compound ([1]; pH 7.4, 1 Day) [%] | also measured
CCCC1O[C@@H]2C[C@H]3[C@@H]4CCC5=CC(=O)C=C[C@]5(C)[C@H]4[C@@H](O)C[C@]3(C)[C@]2(C(=O)COC2CCCN2C(=O)CNC(=O)CCOCCOCCOCCOCCNC(=O)CCC(=O)N2Cc3ccccc3-c3c(nnn3CC3OC4OC5C(CO)OC(OC6C(CO)OC(OC7C(CO)OC(OC8C(CO)OC(OC9C(CO)OC(OC3C(O)C4O)C(O)C9O)C(O)C8O)C(O)C7O)C(O)C6O)C(O)C5O)-c3ccccc32)O1 (some centres unmarked) [Q2L6-PII-9] | 100 | 100 | 100 | 100 | 92 | 100 | 0 | 8 | 25 | 8 | 2 | 0 | 71 | 92 | 86 | 82 | 69 | 66 | 100 | 100 | percentage of the remaining compound ([1]; pH 7.4, 2 Day): 100%; percentage of the remaining compound ([1]; pH 7.4, 3 Day): 100%; percentage of the remaining compound ([1]; pH 7.4, 4 Day): 100%; percentage of the remaining compound ([1]; pH 7.4, 7 Day): 100%; percentage of the remaining compound ([1]; pH 7.4, 1 hr): 100%; percentage of the remaining compound ([1]; pH 7.4, 4 hr): 100%; Solubility [2]: >1 mg/mL; Solubility [3]: >1 mg/mL
CCCC1O[C@@H]2C[C@H]3[C@@H]4CCC5=CC(=O)C=C[C@]5(C)[C@H]4[C@@H](O)C[C@]3(C)[C@]2(C(=O)COCNC(=O)CNC(=O)CCC(=O)N2Cc3ccccc3-c3c(nnn3CC3OC4OC5C(CO)OC(OC6C(CO)OC(OC7C(CO)OC(OC8C(CO)OC(OC9C(CO)OC(OC3C(O)C4O)C(O)C9O)C(O)C8O)C(O)C7O)C(O)C6O)C(O)C5O)-c3ccccc32)O1 (some centres unmarked) [Q2L7-PII-1] | 97 | 97 | 97 | 97 | 97 | 97 | 100 | 100 | 100 | 100 | 100 | 100 | 100 | 100 | 100 | 100 | 100 | 100 | 100 | 100 | percentage of the remaining compound ([1]; DMSO, 1 hr): 97%; percentage of the remaining compound ([1]; pH 3.0, 2 Day): 100%; percentage of the remaining compound ([1]; pH 3.0, 3 Day): 96%; percentage of the remaining compound ([1]; pH 3.0, 4 Day): 95%; percentage of the remaining compound ([1]; pH 3.0, 7 Day): 91%; percentage of the remaining compound ([1]; pH 3.0, 1 hr): 100%; percentage of the remaining compound ([1]; pH 4.0, 7 Day): 100%; percentage of the remaining compound ([1]; pH 4.0, 1 hr): 100%; percentage of the remaining compound ([1]; pH 5.0, 1 hr): 100%; percentage of the remaining compound ([1]; pH 7.4, 2 Day): 100%; percentage of the remaining compound ([1]; pH 7.4, 3 Day): 100%; percentage of the remaining compound ([1]; pH 7.4, 4 Day): 100%; percentage of the remaining compound ([1]; pH 7.4, 7 Day): 100%; percentage of the remaining compound ([1]; pH 7.4, 1 hr): 100%; percentage of the remaining compound ([1]; pH 7.4, 4 hr): 100%; Solubility [2]: >1 mg/mL; Solubility [3]: >1 mg/mL

From patent US20230119539A1, “TRACELESS LINKERS AND PROTEIN-CONJUGATES THEREOF” (Regeneron Pharmaceuticals, Inc., priority 2019, published 2023)
